In the kinase profiling compilation of Christmann-Franck et al. (2016):

Experiments:
Test in all cases: KINOMEscan competition binding
Conditions in all cases: compound 10.0 µM
ABL1 (human) = ABL1 (human) (UniProt P00519)
[1] = test system: ABL1 (human), P00519 [H396P]
CAMK2D (human) = CAMK2D (human) (UniProt Q13557)
CDC2L2 (human) = CDC2L2 (human) (UniProt Q9UQ88)
CDK15 (human) = CDK15 (human) (UniProt Q96Q40)
CDK19 (human) = CDK19 (human) (UniProt Q9BWU1)
CSK (human) = CSK (human) (UniProt P41240)
CSNK2A1 (human) = CSNK2A1 (human) (UniProt P68400)
DAPK1 (human) = DAPK1 (human) (UniProt P53355)
[2] = test system: EGFR (human), P00533 [747-751 del / S ins]
EPHA3 (human) = EPHA3 (human) (UniProt P29320)
ERBB2 (human) = ERBB2 (human) (UniProt P04626)
FLT1 (human) = FLT1 (human) (UniProt P17948)
INSR (human) = INSR (human) (UniProt P06213)
INSRR (human) = INSRR (human) (UniProt P14616)
[3] = target: JAK3 JH1 catalytic (human) (UniProt P52333)
LATS1 (human) = LATS1 (human) (UniProt O95835)
LIMK2 (human) = LIMK2 (human) (UniProt P53671)
LTK (human) = LTK (human) (UniProt P29376)
LTK (human), sequence (P29376 whole entry, looked up): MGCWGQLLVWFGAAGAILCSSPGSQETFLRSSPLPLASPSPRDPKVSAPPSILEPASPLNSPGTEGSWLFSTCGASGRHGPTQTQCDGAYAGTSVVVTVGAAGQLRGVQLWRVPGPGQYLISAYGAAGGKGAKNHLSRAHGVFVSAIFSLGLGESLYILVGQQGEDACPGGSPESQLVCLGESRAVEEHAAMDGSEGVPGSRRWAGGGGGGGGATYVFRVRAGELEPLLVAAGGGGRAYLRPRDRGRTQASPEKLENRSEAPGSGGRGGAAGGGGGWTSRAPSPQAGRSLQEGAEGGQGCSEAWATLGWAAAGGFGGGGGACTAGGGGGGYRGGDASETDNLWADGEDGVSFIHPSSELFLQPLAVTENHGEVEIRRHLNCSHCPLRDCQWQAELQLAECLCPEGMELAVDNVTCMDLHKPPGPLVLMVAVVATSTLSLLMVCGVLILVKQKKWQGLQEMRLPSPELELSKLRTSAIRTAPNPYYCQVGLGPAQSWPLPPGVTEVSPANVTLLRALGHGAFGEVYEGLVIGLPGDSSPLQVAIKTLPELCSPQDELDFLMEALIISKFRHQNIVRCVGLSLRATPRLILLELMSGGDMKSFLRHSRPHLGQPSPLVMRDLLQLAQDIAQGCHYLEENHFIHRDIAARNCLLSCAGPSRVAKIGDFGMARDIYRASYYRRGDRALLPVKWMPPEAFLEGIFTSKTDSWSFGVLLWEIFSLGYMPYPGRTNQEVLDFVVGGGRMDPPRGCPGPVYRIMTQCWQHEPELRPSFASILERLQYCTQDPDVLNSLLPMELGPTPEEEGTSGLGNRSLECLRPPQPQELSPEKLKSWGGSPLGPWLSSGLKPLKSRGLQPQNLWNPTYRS

MAP2K6 (human) = MAP2K6 (human) (UniProt P52564)
MAP2K6 (human), sequence (P52564 whole entry, looked up): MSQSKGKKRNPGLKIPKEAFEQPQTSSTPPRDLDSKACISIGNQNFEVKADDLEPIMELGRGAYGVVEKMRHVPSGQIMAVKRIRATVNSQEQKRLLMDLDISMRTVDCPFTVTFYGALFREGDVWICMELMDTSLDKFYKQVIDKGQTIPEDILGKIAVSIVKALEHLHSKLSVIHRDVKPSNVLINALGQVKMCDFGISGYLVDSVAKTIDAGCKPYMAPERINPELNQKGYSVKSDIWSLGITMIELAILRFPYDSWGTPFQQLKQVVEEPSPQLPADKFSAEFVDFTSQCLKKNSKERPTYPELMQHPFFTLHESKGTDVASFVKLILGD

MAP3K1 (human) = MAP3K1 (human) (UniProt Q13233)
MAP3K6 (human) = MAP3K6 (human) (UniProt O95382)
MAST1 (human) = MAST1 (human) (UniProt Q9Y2H9)
MUSK (human) = MUSK (human) (UniProt O15146)
MUSK (human), sequence (O15146 whole entry, looked up): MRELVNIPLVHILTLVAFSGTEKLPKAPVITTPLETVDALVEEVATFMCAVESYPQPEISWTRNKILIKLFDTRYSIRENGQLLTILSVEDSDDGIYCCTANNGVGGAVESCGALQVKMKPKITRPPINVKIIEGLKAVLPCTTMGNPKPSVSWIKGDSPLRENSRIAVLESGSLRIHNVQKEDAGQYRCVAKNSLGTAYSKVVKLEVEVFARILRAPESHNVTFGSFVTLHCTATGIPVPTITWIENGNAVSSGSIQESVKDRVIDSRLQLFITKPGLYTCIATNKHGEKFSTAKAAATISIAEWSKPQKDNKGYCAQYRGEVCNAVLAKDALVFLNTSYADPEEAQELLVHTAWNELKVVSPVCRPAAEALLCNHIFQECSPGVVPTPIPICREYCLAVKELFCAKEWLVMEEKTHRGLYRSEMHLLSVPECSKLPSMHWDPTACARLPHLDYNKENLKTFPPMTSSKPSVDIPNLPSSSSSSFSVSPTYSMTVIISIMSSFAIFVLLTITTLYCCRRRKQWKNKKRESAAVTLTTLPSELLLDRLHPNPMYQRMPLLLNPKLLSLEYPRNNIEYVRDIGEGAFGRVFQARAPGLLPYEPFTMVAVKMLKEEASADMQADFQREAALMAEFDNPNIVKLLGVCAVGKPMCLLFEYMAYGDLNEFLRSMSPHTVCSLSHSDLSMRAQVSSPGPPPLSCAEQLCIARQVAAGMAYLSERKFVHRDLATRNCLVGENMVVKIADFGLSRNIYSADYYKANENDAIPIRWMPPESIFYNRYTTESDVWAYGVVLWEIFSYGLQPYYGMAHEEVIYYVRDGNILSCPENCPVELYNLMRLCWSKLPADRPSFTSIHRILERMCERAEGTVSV

PKMYT1 (human) = PKMYT1 (human) (UniProt Q99640)
PRKCD (human) = PRKCD (human) (UniProt Q05655)
PRKCD (human), sequence (Q05655 whole entry, looked up): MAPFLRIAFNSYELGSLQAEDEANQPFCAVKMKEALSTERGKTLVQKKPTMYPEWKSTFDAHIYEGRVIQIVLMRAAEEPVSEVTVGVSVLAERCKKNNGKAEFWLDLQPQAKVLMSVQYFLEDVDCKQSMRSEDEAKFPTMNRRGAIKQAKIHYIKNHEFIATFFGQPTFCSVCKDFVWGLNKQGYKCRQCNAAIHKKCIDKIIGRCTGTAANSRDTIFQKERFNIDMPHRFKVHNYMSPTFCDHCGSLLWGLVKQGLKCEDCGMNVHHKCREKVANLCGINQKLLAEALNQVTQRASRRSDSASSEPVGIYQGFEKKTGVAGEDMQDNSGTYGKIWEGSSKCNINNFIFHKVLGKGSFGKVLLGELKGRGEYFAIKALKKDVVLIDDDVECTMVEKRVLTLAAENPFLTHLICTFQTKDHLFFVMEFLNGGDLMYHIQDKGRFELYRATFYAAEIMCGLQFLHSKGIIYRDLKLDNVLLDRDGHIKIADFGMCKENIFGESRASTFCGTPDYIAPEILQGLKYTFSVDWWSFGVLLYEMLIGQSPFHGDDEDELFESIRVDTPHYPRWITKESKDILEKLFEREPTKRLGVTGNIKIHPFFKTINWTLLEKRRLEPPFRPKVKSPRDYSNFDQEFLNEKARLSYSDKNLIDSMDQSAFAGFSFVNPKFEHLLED

PRKCE (human) = PRKCE (human) (UniProt Q02156)
PRKCE (human), sequence (Q02156 whole entry, looked up): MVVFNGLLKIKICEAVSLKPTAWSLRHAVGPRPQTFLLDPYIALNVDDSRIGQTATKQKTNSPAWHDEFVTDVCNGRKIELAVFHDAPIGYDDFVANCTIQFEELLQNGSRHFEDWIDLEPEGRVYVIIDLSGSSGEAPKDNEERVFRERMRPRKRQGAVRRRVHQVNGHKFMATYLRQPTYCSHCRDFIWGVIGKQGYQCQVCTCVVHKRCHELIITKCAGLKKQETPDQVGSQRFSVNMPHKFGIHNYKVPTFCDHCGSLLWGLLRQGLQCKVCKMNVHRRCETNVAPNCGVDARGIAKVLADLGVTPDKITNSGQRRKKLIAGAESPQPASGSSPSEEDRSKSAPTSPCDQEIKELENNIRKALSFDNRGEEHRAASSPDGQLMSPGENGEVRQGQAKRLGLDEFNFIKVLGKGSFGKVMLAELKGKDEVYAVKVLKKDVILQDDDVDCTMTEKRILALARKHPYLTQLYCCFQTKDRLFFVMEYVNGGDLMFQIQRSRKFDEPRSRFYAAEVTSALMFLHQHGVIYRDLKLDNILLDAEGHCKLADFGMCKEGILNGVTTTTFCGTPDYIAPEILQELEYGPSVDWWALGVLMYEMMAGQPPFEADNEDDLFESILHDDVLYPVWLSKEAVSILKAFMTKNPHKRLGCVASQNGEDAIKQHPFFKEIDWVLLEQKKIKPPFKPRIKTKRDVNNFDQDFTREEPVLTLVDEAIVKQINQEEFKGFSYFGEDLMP

RPS6KA2 KD2 (human) = RPS6KA2 KD2 (human) (UniProt Q15349)
RPS6KA5 KD1 (human) = RPS6KA5 KD1 (human) (UniProt O75582)
RPS6KA5 KD1 (human), sequence (O75582 whole entry, looked up): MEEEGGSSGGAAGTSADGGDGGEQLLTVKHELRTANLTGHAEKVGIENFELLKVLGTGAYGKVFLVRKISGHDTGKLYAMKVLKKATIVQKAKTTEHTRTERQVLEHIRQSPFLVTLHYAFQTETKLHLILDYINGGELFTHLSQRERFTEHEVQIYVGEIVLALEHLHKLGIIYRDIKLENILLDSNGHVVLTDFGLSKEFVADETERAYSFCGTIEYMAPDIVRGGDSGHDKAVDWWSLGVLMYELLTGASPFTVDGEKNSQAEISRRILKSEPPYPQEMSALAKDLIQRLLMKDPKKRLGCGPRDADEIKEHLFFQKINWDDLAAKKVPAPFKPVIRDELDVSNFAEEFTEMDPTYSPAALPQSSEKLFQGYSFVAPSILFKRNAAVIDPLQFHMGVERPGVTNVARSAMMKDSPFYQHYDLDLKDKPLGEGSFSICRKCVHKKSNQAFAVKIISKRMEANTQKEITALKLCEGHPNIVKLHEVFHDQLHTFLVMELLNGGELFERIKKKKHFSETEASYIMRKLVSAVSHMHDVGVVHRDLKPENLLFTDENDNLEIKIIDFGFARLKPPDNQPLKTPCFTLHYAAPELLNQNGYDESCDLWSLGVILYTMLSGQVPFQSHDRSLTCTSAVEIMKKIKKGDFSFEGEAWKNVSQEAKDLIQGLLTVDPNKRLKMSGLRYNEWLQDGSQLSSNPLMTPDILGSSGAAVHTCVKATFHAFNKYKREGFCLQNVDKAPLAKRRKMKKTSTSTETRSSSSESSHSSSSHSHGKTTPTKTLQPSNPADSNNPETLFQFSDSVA

SIK2 (human) = SIK2 (human) (UniProt Q9H0K1)
SRMS (human) = SRMS (human) (UniProt Q9H3Y6)
TLK1 (human) = TLK1 (human) (UniProt Q9UKI8)
TLK1 (human), sequence (Q9UKI8 whole entry, looked up): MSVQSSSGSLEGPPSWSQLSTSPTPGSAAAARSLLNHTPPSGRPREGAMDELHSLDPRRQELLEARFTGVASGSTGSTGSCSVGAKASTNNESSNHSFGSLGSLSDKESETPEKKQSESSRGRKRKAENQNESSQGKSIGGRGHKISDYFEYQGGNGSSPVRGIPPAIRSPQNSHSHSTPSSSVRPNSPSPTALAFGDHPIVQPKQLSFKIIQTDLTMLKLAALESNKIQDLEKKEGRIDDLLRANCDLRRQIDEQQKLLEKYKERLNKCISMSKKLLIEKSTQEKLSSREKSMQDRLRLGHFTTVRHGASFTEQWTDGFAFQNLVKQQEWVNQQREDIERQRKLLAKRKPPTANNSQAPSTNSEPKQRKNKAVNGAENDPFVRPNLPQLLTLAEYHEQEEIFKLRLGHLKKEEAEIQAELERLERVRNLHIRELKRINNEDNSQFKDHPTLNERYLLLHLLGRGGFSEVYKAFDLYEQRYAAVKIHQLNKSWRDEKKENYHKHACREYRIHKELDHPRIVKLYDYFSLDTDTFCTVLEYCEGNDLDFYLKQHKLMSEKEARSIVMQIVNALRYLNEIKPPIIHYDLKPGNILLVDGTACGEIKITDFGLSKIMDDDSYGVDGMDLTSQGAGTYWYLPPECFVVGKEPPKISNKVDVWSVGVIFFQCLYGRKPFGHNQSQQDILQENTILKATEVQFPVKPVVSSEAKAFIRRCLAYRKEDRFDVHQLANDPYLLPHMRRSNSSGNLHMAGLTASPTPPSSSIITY

TNK1 (human) = TNK1 (human) (UniProt Q13470)
TXK (human) = TXK (human) (UniProt P42681)
[4] = test system: EGFR (human), P00533 [T790M]

Compound	kinase still bound, per cent of control (ABL1 (human))	kinase still bound, per cent of control (CAMK2D (human))	kinase still bound, per cent of control (CDC2L2 (human))	kinase still bound, per cent of control (CDK19 (human))	kinase still bound, per cent of control (CSK (human))	kinase still bound, per cent of control (CSNK2A1 (human))	kinase still bound, per cent of control (DAPK1 (human))	kinase still bound, per cent of control [2]	kinase still bound, per cent of control (ERBB2 (human))	kinase still bound, per cent of control (FLT1 (human))	kinase still bound, per cent of control (INSR (human))	kinase still bound, per cent of control (INSRR (human))	kinase still bound, per cent of control [3]	kinase still bound, per cent of control (LATS1 (human))	kinase still bound, per cent of control (LTK (human))	kinase still bound, per cent of control (MAP2K6 (human))	kinase still bound, per cent of control (MAP3K1 (human))	kinase still bound, per cent of control (MAP3K6 (human))	kinase still bound, per cent of control (MAST1 (human))	kinase still bound, per cent of control (MUSK (human))	also measured
COc1cc(N2CCN(C)CC2)ccc1Nc1ncc2c(n1)N(C)c1ccccc1C(=O)N2C	100%	23%	100%	100%	100%	100%	100%	100%	100%	100%	100%	100%	100%	100%	100%	100%	100%	100%	100%	100%	kinase still bound, per cent of control [1]: 100%; kinase still bound, per cent of control (CDK15 (human)): 100%; kinase still bound, per cent of control (EPHA3 (human)): 100%; kinase still bound, per cent of control (LIMK2 (human)): 100%; kinase still bound, per cent of control (PKMYT1 (human)): 100%; kinase still bound, per cent of control (PRKCD (human)): 100%; kinase still bound, per cent of control (PRKCE (human)): 100%; kinase still bound, per cent of control (RPS6KA2 KD2 (human)): 15%; kinase still bound, per cent of control (RPS6KA5 KD1 (human)): 100%; kinase still bound, per cent of control (SIK2 (human)): 100%; kinase still bound, per cent of control (SRMS (human)): 100%; kinase still bound, per cent of control (TLK1 (human)): 100%; kinase still bound, per cent of control (TNK1 (human)): 0.4%; kinase still bound, per cent of control (TXK (human)): 100%
CCN(CC)CCCCNc1ncc2c(n1)N(C)C(=O)N(c1c(Cl)c(OC)cc(OC)c1Cl)C2	100%	100%	26%	100%	100%	100%	100%	100%	100%	5.6%	100%	100%	100%	100%	100%	100%	100%	100%	100%	100%	kinase still bound, per cent of control [1]: 100%; kinase still bound, per cent of control (CDK15 (human)): 100%; kinase still bound, per cent of control (EPHA3 (human)): 100%; kinase still bound, per cent of control (LIMK2 (human)): 100%; kinase still bound, per cent of control (PKMYT1 (human)): 100%; kinase still bound, per cent of control (PRKCD (human)): 100%; kinase still bound, per cent of control (PRKCE (human)): 100%; kinase still bound, per cent of control (RPS6KA2 KD2 (human)): 100%; kinase still bound, per cent of control (RPS6KA5 KD1 (human)): 100%; kinase still bound, per cent of control (SIK2 (human)): 100%; kinase still bound, per cent of control (SRMS (human)): 100%; kinase still bound, per cent of control (TLK1 (human)): 100%; kinase still bound, per cent of control (TNK1 (human)): 100%; kinase still bound, per cent of control (TXK (human)): 100%
COc1cc2ncn(-c3cc(OCc4ccccc4C(F)(F)F)c(C(N)=O)s3)c2cc1OC	60%	75%	99%	100%	97%	30%	8.6%	100%	100%	58%	84%	100%	40%	100%	100%	85%	1.6%	84%	75%	100%	kinase still bound, per cent of control [4]: 100%; kinase still bound, per cent of control (PKMYT1 (human)): 60%; kinase still bound, per cent of control (PRKCD (human)): 100%; kinase still bound, per cent of control (PRKCE (human)): 100%; kinase still bound, per cent of control (RPS6KA2 KD2 (human)): 74%; kinase still bound, per cent of control (RPS6KA5 KD1 (human)): 100%; kinase still bound, per cent of control (SIK2 (human)): 26%; kinase still bound, per cent of control (SRMS (human)): 58%; kinase still bound, per cent of control (TLK1 (human)): 96%; kinase still bound, per cent of control (TNK1 (human)): 36%; kinase still bound, per cent of control (TXK (human)): 72%
